Converted amounts (≈) assume the structure as drawn.
Key:
[1] = molecular target: T1, truncated Manduca EcR-VP16 (Manduca sexta, UniProt P49883); experiment: Cell-based luciferase reporter assay of transcriptional activation by EcR receptor plasmid (MMV) in S2 Drosophila cells; conditions: ligand 2 μM, harvested 24 hours after addition, ratio relative to reporter construct without ligand
T1 construct: A truncated Manduca EcR containing domains C, D and E of the receptor was constructed as follows; engineered start Met (in-frame ATG) (N); expressed in transfected cells; host or cells: S2 Drosophila cells (ATCC CRL-1963), transiently transfected with plasmid MMV (pPacU backbone)
T1 sequence (P49883 112-535, added parts left off): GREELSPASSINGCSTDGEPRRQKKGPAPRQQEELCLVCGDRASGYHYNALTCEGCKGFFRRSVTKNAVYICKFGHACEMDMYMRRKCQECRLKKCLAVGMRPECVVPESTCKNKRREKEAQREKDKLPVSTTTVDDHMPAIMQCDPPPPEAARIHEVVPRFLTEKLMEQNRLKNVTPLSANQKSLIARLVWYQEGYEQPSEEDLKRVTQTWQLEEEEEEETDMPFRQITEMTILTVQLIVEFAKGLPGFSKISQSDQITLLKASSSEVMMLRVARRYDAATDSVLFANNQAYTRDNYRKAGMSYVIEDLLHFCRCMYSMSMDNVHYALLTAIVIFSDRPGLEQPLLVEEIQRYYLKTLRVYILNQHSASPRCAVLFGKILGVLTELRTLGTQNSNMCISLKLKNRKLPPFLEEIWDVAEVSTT
T1 sequence (P20153 whole entry partner, the tested form may be a part): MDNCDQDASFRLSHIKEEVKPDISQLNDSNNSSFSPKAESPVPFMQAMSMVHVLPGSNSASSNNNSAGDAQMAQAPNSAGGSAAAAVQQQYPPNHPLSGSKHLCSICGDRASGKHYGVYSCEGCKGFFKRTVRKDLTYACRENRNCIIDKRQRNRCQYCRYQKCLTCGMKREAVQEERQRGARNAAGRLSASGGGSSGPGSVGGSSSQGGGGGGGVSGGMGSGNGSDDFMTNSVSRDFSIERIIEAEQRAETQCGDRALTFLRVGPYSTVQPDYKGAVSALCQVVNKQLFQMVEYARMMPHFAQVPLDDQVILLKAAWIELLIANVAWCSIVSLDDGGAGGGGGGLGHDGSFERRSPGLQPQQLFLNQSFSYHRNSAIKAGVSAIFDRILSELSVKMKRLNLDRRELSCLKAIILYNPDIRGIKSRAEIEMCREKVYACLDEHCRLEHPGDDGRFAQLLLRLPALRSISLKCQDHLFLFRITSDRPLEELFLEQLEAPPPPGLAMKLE
From the text: A minimal promoter vector was made by ligating a synthetic TATA box sequence oligonucleotide pair, 5′-agcttgagggtataatg-3′ (SEQ ID NO: 1) and 3′-actcccatattactcga-5′ (SEQ ID NO:2), into the HindIII site of vector pGL3-basic (Promega) so that the HindIII site was recreated 5′ to the inserted oligonucleotide and destroyed between the oligonucleotide and the downstream luciferase gene. This vector was designated TATA5.
The binding site from the hsp27 gene (Koelle et al., Cell 67(1): 59-77 (1991)) was made with the oligonucleotide pair, 5′-[…]-3′ (SEQ ID NO:3) and 3′-[…]-5′ (SEQ ID NO:4). This site was multimerized and ligated into the BglII site of vector TATA-5. One isolate, pCGS154, contained the sequence below in the inserted region, having 2 pairs of sites in inverted orientations. […] The sequence of the inserted region in pCGS154 is shown below:
PCR primers were designed based on the published sequence for Manduca Sexta ecdysone receptor (EcR) (genbank accession number U19812 (SEQ ID Nos:6 and 7) to clone the gene in two halves. RNA was prepared from prepupae larva of Manduca sexta using the LiCl/phenol method (Current Protocols in Molecular Biology, Vol. 1, Unit 4.3, 1987, John Wiley and Sons, publishers) and 1 μg of total RNA was used to prepare cDNA using MMLV reverse transcriptase (Promega). The cDNA was used in a PCR reaction with the primers described above to generate two PCR products for the 5′ and 3′ halves of the gene. These were subcloned into the pGEM-TA vector (Promega) and sequenced. The two fragments were joined at a unique Ndel site within each fragment and ligated into pBS-KS (Stratagene) to create a full length Manduca sexta EcR clone named pBSFLMa. A HindIII site followed by an inframe stop codon and BamHI site was placed at the 3′ end of the E domain (ligand binding domain) of the Manduca EcR receptor using the oligonucleotide: 5′-[…]-3′ (SEQ ID NO:8).
A truncated Manduca EcR containing domains C, D and E of the receptor was constructed as follows. A BamHI site and in-frame ATG was engineered just 5′ to the C domain using the degenerate primers 5′-ggatccatgggycgagaagaattrtcaccr-3′ (SEQ ID NO:9) and 5′-ccacrtcccagatctcctcga-3′ (SEQ ID NO:10). This fragment was then joined using the Nde site to the 3′ end of Manduca EcR, which has an engineered HindIII site at the 3′ end as described above.
A fragment containing the herpes simplex VP16 transactivation domain was cloned from plasmid 35S/USP-VP16 (U.S. Pat. No. 5,880,333) using the PCR primers 5′-aagcttgcccccccgaccg-3′ (SEQ ID NO:11) (placing a HindIII site at the 5′ end of the domain) and 5′-[…]-3′ (SEQ ID NO:12) (placing an inframe stop codon followed by BamHI and Xbal sites at the 3′ end of the domain). The VP16 domain was fused in frame to the 3′ end of the E domain of the ecdysone receptor using the HindIII site 3′ to EcR clone and the HindIII site engineered at the 5′ end of VP16.
The plasmid pPacU (Courey A J and Tjian R (1988) Cell 55, 887-898) was used as the starting vector for expression constructs. The truncated Manduca EcR-VP16 was ligated into pPacU using the BamHI sites flanking the coding region to create the construct referred to as MMV.
An in vivo cell based assay was used to measure transcriptional activation by the EcR receptor plasmid in the presence of the chemical ligands as described above. S2 Drosophila cells (ATCC CRL-1963) (commonly known as cells from the fruit fly) were transiently transfected with luciferase reporter (pCGS154) and receptor expression plasmid (MMV) using the calcium phosphate precipitation procedure (Di Nocera and David (1983) PNAS 80, 7095-7098). S2 cells were plated in 96 well format at a density of 2×10^5 in 166.6 μl of Schneider's Drosophila media supplemented with antibiotics and 10% heat inactivated fetal bovine serum (GIBO-BRL). […]

Heliothis virescens = Heliothis virescens ovo-larvicide, feeding/contact activity on eggs on artificial diet; type: in vivo; conditions: 144 h, fresh eggs (0 to 24 hours old) on artificial diet, 6 days incubation, read-out: Insecticidal activity (EC80 ppm) Hv
Method: Heliothis virescens (abbreviated as Hv) (commonly known as tobacco budworm): ovo-larvicide, feeding/contact activity. 30 to 35 fresh eggs (0 to 24 hours old), deposited on filter paper, were placed in petri dishes on a layer of artificial diet and 0.8 mL of each test solution of cyanoenamine was individually pipetted onto them. After an incubation period of 6 days, samples were checked for egg mortality, larval mortality, and growth regulation.
Each of Spodopertera littoralis and Heliothis virescens is a larval form of an insect in the order Lepidoptera.

Spodoptera littoralis = Spodoptera littoralis larvicide, feeding/contact activity on sprayed cotton leaf discs; type: in vivo; conditions: foliar, L1 larvae on sprayed cotton leaf discs, checked 2 and 6 days after treatment, read-out: Insecticidal activity (EC80 ppm) SPODLI
From the text: Spodoptera littoralis (abbreviated as SPODLI) (commonly known as Egyptian cotton leafworm): larvicide, feeding/contact activity. Cotton leaf discs were placed on agar in petri dishes and individually sprayed with test solution of cyanoenamine in an application chamber. After drying, the leaf discs were infested with 20 to 25 L1 larvae. The samples were checked for mortality, repellent effect, feeding behavior, and growth regulation 2 and 6 days after treatment. Each of Spodopertera littoralis and Heliothis virescens is a larval form of an insect in the order Lepidoptera.

SMILES	Gene switch activity fold induction [1] [fold induction]	EC80 (Heliothis virescens) [µg/mL]	EC80 (Spodoptera littoralis) [µg/mL]
Cc1cccc(/C(C#N)=C(\NC(=O)c2cccc(C)c2C)C(C)(C)C)c1	66	–	–
Cc1c(Cl)cccc1C(=O)N/C(=C(/C#N)c1ccccc1)C(C)(C)C	191	–	–
Cc1cccc(C(=O)N/C(=C(/C#N)c2ccccc2)C(C)(C)C)c1C	636	–	–
Cc1c(Br)cccc1C(=O)N/C(=C(/C#N)c1ccccc1)C(C)(C)C	1112	–	–
Cc1cc(C)cc(/C(C#N)=C(\NC(=O)c2cccc(Cl)c2Cl)C(C)(C)C)c1	1145	–	–
CCc1c(OC)cccc1C(=O)N/C(=C(/C#N)c1ccccc1)C(C)(C)C	239	–	–
COc1cccc(C(=O)N/C(=C(/C#N)c2ccccc2)C(C)(C)C)c1C	913	–	–
Cc1cc(C)cc(/C(C#N)=C(\NC(=O)c2cccc(Cl)c2C)C(C)(C)C)c1 [drawing 443]	–	5 (≈ 13.1 µM)	50 (≈ 131 µM)
Cc1cccc(/C(C#N)=C(\NC(=O)c2cccc(Br)c2C)C(C)(C)C)c1 [drawing 444]	–	200 (≈ 486 µM)	200 (≈ 486 µM)
Cc1cc(C)cc(/C(C#N)=C(\NC(=O)c2cccc(Br)c2C)C(C)(C)C)c1 [drawing 445]	–	> 50	> 50
CC(C)(C)/C(NC(=O)c1c(F)cccc1F)=C(\C#N)c1ccccc1 [drawing 446]	–	> 100	> 100
Cc1cc(C)cc(/C(C#N)=C(\NC(=O)c2cccc(C)c2C)C(C)(C)C)c1 [drawing 447]	–	50 (≈ 139 µM)	50 (≈ 139 µM)
COc1cccc(C(=O)N/C(=C(/C#N)c2cc(C)cc(C)c2)C(C)(C)C)c1C [drawing 448]	–	100 (≈ 266 µM)	100 (≈ 266 µM)
COc1cccc(C(=O)N/C(=C(/C#N)c2cccc(C)c2)C(C)(C)C)c1C [drawing 449]	–	200 (≈ 552 µM)	200 (≈ 552 µM)
CCc1ccc(C(=O)N/C(=C(/C#N)c2ccccc2)C(C)(C)C)cc1 [drawing 450]	–	> 100	> 100
Cc1cc(C)cc(/C(C#N)=C(\NC(=O)c2cccc(Cl)c2C)C(C)(C)C)c1 [drawing 453]	225	–	–
Cc1cccc(/C(C#N)=C(\NC(=O)c2cccc(Br)c2C)C(C)(C)C)c1 [drawing 457]	1012	–	–
Cc1cc(C)cc(/C(C#N)=C(\NC(=O)c2cccc(Br)c2C)C(C)(C)C)c1 [drawing 458]	1121	–	–
CC(C)(C)/C(NC(=O)c1c(F)cccc1F)=C(\C#N)c1ccccc1 [drawing 459]	29	–	–
Cc1cc(C)cc(/C(C#N)=C(\NC(=O)c2cccc(C)c2C)C(C)(C)C)c1 [drawing 460]	893	–	–
COc1cccc(C(=O)N/C(=C(/C#N)c2cc(C)cc(C)c2)C(C)(C)C)c1C [drawing 462]	314	–	–
COc1cccc(C(=O)N/C(=C(/C#N)c2cccc(C)c2)C(C)(C)C)c1C [drawing 463]	364	–	–
CCc1ccc(C(=O)N/C(=C(/C#N)c2ccccc2)C(C)(C)C)cc1 [drawing 464]	394	–	–
